Results: patent publication US11136301B2, “Broad spectrum antiviral compounds and uses thereof” (The Regents Of The University Of California, priority 2015, dated 2021)
Entries after “also recorded” stand apart in the source; their conditions may differ. Read-outs that look alike come from different tables or passages of the source.

Experiments:
[1] = system: wild-type HIV-1 (HIV-1LAI) in MT-4 cells (permissive); assay: Antiviral activity assay: wild-type HIV-1 in permissive MT4 cells, reverse transcriptase activity in culture supernatants; format: cell-based
[2] = system: wild-type HIV-1 (HIV-1LAI) in H9 cells (non-permissive); assay: microbe, parasite or virus in culture; format: cell-based; details: for antiviral activity against HIV-1 (in words): HIV-1 replication
[3] = system: HA-tagged A3G and GFP-tagged Vif or ΔVif in 293FT cells; assay: Immunoblot of A3G and Vif levels in transfected 293FT cells; details: 16 h; for A3G levels / Vif expression / upregulation of A3G and downregulation of Vif (immunoblots, FIG. 16): 293FT cells, 50 μM; for A3G levels / Vif expression: HA-A3G and GFP-Vif
Zika virus = assay: Zika viral replication inhibition; format: cell-based; details: FIG. 20
[4] = Water solubility of choline salts; format: physicochemical
[5] = system: A3G, Vif, p24, HSP90 in HIV-1LAI-infected H9 and MT4 cells; assay: Protein analysis (immunoblot) of HIV-1 infected H9 and MT4 cells; format: cell-based
Experimental: Non-permissive (H9) and permissive (MT4) cells were treated with 1% DMSO, IMA82, or 17-DMAG overnight and then infected with HIV-1LAI for 5 h. Cells were washed three times with PBS and cultured in medium for 72 h in the presence of the same concentrations of DMSO, IMA82, or 17-DMAG. Total cell lysates were prepared with M-PER buffer containing 0.5% Triton X-100, 150 mM NaCl, 5 mM EDTA, and protease inhibitor cocktail. Protein concentrations were determined with the DC protein assay kit (Bio-Rad). Immunoblotting was performed as described above.

[6] = system: polyubiquitination of A3G and Vif; assay: Ubiquitination assay in 293FT cells; format: cell-based; details: 293FT-A3G-ΔVif cells (lacking Vif)
Experimental: Cells were incubated with or without 10 μM of IMA82, IMD55, or IMD64 for 16 h, and then with or without 10 μM of the calpain inhibitor ALLN for 4 h. The cells were washed once with PBS and lysed. Samples of 200 μg protein were immunoprecipitated by the addition of rat anti-HA (Roche) or mouse anti-GFP (Wako) antibodies (7 μg) and 50 μl protein G DYNABEADS® (Invitrogen) and rotated at RT for 2 h. The beads were washed three times with PBS containing 0.05% Tween 20 and boiled in 5×SDS sample buffer. The denatured proteins were resolved and electroblotted onto PVDF membranes. The membranes were probed with rabbit anti-ubiquitin, rabbit anti-HA, or rabbit anti-GFP antibodies, as described above.

[7] = system: Vif-A3G-HSP90-Cul5-CBF-β E3 ligase complex; assay: Immunoprecipitation of IMA82-interacting proteins / E3 ligase complex; format: cell-based; details: 293FT cells transfected with FLAG-HSP90 and HA-A3G, 16 h
Experimental: Cells were washed twice with PBS and lysed in IP lysis buffer (Thermo) or in a buffer composed of 50 mM Tris-HCl (pH 7.2), 150 mM NaCl, 1% NP-40, 10% glycerol, and protease inhibitor cocktail. Cell lysates ([…]) were incubated with 5 μl of rat anti-HA (Roche), rabbit anti-GFP (Cell Signaling), mouse anti-Hsp90 (Millipore), or rabbit anti-Cul5 (Sigma) plus 30 μl of protein A or G DYNABEADS® (Invitrogen) and rotated at RT for 2 h. The beads were washed three times with PBS containing 0.05% Tween 20. Each lysate was immunoprecipitated in triplicate and the beads were combined. Immune complexes were eluted by boiling in 5×SDS sample buffer. The proteins were separated by SDS-PAGE and analyzed by immunoblotting with antibodies to HA (A3G), GFP (Vif), Hsp90, Cul5, and CBF-β, as described above.

[8] = Human immunodeficiency virus 1, MT4, Table 1, wild-type HIV-1, permissive MT4 cells, read-out: Antiviral activity (IC50 μM) MT4 cells
[9] = Human immunodeficiency virus 1, MT4, Table 3, wild-type HIV-1, permissive MT4 cells, read-out: Antiviral activity (IC50 μM) MT4 cells
[10] = Human immunodeficiency virus 1, MT4, Table 6, wild-type HIV-1, permissive MT4 cells, read-out: Antiviral activity (IC50 μM) MT4 cells
[11] = Human immunodeficiency virus 1, MT4, text, permissive MT4 cells, read-out: IC50, non-specific antiviral activity in permissive cells
[12] = Human immunodeficiency virus 1, H9, read-out: Antiviral activity (IC50 μM) H9 cells, Table 1, wild-type HIV-1, non-permissive H9 cells
[13] = Human immunodeficiency virus 1, H9, read-out: Antiviral activity (IC50 μM) H9 cells, Table 3, wild-type HIV-1, non-permissive H9 cells
[14] = Human immunodeficiency virus 1, H9, read-out: Antiviral activity (IC50 μM) H9 cells, Table 6, wild-type HIV-1, non-permissive H9 cells
[15] = Human immunodeficiency virus 1, H9, read-out: IC50, anti-HIV-1 activity, non-permissive H9 cells
[16] = Human immunodeficiency virus 1, H9, read-out: Antiviral activity (IC50 μM) H9 Cells, Table 4, wild-type HIV-1, non-permissive H9 cells
[17] = Human immunodeficiency virus 1, H9, read-out: Antiviral activity (IC50 μM) H9 Cells, Table 7, wild-type HIV-1, non-permissive H9 cells
[18] = Human immunodeficiency virus 1, H9, read-out: Antiviral activity (IC50 μM) H9 cells, Table 5, wild-type HIV-1, non-permissive H9 cells
[19] = Human immunodeficiency virus 1, H9, read-out: Antiviral activity (IC50 μM) H9 cells, Table 8, wild-type HIV-1, non-permissive H9 cells
[20] = Human immunodeficiency virus 1, H9, read-out: Antiviral activity (IC50 μM) H9 cells, wild-type HIV-1 (HIV-1LAI), H9 cells (non-permissive), RT activity in culture supernatants, compounds 1 to 50 μM
[21] = Human immunodeficiency virus 1, MT4, Table 2, wild-type HIV-1, permissive MT4 cells, read-out: Antiviral activity (IC50 μM) MT4
[22] = Human immunodeficiency virus 1, MT4, wild-type HIV-1 (HIV-1LAI), MT4 cells (permissive), RT activity in culture supernatants, compounds 1 to 50 μM, read-out: Antiviral activity (IC50 μM) MT4 cells
[23] = Human immunodeficiency virus 1, H9, read-out: Antiviral activity (IC50 μM) H9, Table 2, wild-type HIV-1, non-permissive H9 cells

Row | Compound | IC50 [1, 8] [µM] | IC50 [1, 9] [µM] | IC50 [2, 12] [µM] | IC50 [2, 13] [µM] | IC50 [2, 15] [µM] | A3G levels [3] | Vif expression [3] | melting point [°C] | IC50 [2, 16] [µM] | IC50 [2, 17] [µM] | IC50 [2, 20] [µM] | IC50 [1, 22] [µM] | upregulation of A3G and downregulation of Vif (immunoblots, FIG. 16) [3] | water solubility [4] | antiviral activity against HIV-1 (in words) [2] | also measured
1 | COc1ccccc1-c1nnc(-c2ccccc2Sc2ccc([N+](=O)[O-])cc2)o1 [Compound 1b, 2-(2-Methoxyphenyl)-5-(2-((4-nitrophenyl)thio)phenyl)-1,3,4-oxadiazole] | 50 | 50 | 6.8 | 6.8 | 6.8 | up-regulation of A3G; also recorded: restoring A3G levels | downregulation of Vif; also recorded: down-regulated Vif expression | 128 to 130 | – | – | – | – | – | – | – | IC50 [1, 10]: 50 µM; IC50 [1, 11]: 50 µM; IC50 [2, 14]: 6.8 µM
2 | COC(=O)c1ccc(Sc2ccccc2-c2cn(-c3c(OC)cccc3OC)nn2)cc1 [Compound 6bx, Methyl 4-((2-(1-(2,6-dimethoxyphenyl)-1H-1,2,3-triazol-4-yl)phenyl)thio)benzoate] | – | – | – | – | 0.2 | – | – | – | 0.2 | 0.2 | 0.2 | – | – | – | – | Zika viral replication (Zika virus): Zika viral replication inhibition; IC50 [2, 18]: 0.2 µM; IC50 [2, 19]: 0.2 µM
3 | COc1ccccc1-n1nncc1-c1ccccc1Sc1ccc([N+](=O)[O-])cc1 [Compound 1e, 1-(2-Methoxyphenyl)-5-(2-((4-nitrophenyl)thio)phenyl)-1H-1,2,3-triazole] | 25 | 25 | 15 | 15 | 15 | up-regulation of A3G; also recorded: restoring A3G levels | downregulation of Vif; also recorded: down-regulated Vif expression | 139 to 141 | – | – | – | – | – | – | – | IC50 [1, 11]: 25 µM
4 | COC(=O)c1ccc(Sc2ccccc2-c2cn(-c3cc(OC)ccc3OC)nn2)cc1 [Compound 5bx, Methyl 4-((2-(1-(2,5-dimethoxyphenyl)-1H-1,2,3-triazol-4-yl)phenyl)thio)benzoate] | – | – | – | – | 0.2 | – | – | – | 0.2 | 0.2 | 0.2 | > 50 | same mechanism as of RN-18; also recorded: same mechanism as observed for RN-18 and 1d | – | – | Zika viral replication (Zika virus): Zika viral replication inhibition; IC50 [1, 21]: > 50 µM; IC50 [2, 23]: 0.2 µM; IC50 [2, 18]: 0.2 µM; IC50 [2, 19]: 0.2 µM
5 | COc1ccc(OC)c(-n2cc(-c3ccccc3S(=O)(=O)c3ccc(C(=O)O)cc3)nn2)c1 [Compound 5gy, 2-Hydroxy-N,N,N-trimethylethanaminium 4-((2-(1-(2,5-dimethoxyphenyl)-1H-1,2,3-triazol-4-yl)phenyl)sulfonyl)benzoate] | – | – | – | – | 0.5 | – | – | – | 0.5 | 0.5 | – | – | same mechanism as of RN-18; also recorded: same mechanism as observed for RN-18 and 1d | water-soluble | potent activities | –
6 | COc1ccccc1-n1cc(-c2ccccc2S(=O)(=O)c2ccc(C(=O)O)cc2)nn1 [Compound 2gy, 2-Hydroxy-N,N,N-trimethylethanaminium 4-((2-(1-(2-methoxyphenyl)-1H-1,2,3-triazol-4-yl)phenyl)sulfonyl)benzoate] | – | – | – | – | 0.2 | – | – | – | – | – | – | – | same mechanism as of RN-18; also recorded: same mechanism as observed for RN-18 and 1d | water-soluble | potent activities | –
7 | COc1ccc(-n2cc(-c3ccccc3S(=O)(=O)c3ccc(C(=O)O)cc3)nn2)c(OC)c1 [Compound 4gy, 2-Hydroxy-N,N,N-trimethylethanaminium 4-((2-(1-(2,4-dimethoxyphenyl)-1H-1,2,3-triazol-4-yl)phenyl)sulfonyl)benzoate] | – | – | – | – | 0.7 | – | – | – | 0.7 | 0.7 | – | > 50 | – | water-soluble | potent activities | IC50 [1, 21]: > 50 µM; IC50 [2, 23]: 0.7 µM
8 | COc1ccccc1-n1cc(-c2ccccc2Sc2ccc([N+](=O)[O-])cc2)nn1 [Compound 1d, 1-(2-Methoxyphenyl)-4-(2-((4-nitrophenyl)thio)phenyl)-1H-1,2,3-triazole] | > 50 | > 50 | 1.2 | 1.2 | 1.2 | up-regulation of A3G; also recorded: restoring A3G levels | downregulation of Vif; also recorded: down-regulated Vif expression | 149 to 151 | – | – | 1.2 | > 50 | – | – | – | IC50 [1, 10]: > 50 µM; antiviral activity in MT4 cells (specificity) ([1]; permissive MT4 cells, up to 50 μM): no activity; IC50 [2, 14]: 1.2 µM
9 | C=CCNC1=C2C[C@@H](C)C[C@H](OC)[C@H](O)[C@@H](C)/C=C(\C)[C@H](OC(N)=O)[C@@H](OC)/C=C\C=C(/C)C(=O)NC(=CC1=O)C2=O [Compound 17-AAG, 17-N-Allylamino-17-demethoxygeldanamycin, reference compound] | – | – | – | – | – | – | – | – | – | – | – | – | – | – | – | A3G levels ([5]; HIV-1-infected H9 cells): dose-dependently decreased the expression of A3G; Vif levels ([5]; HIV-1-infected H9 cells): without affecting Vif expression; A3G expression ([5]; uninfected H9 cells, 16 h): decreased; A3G ubiquitination [6]: ubiquitinated; HSP90-A3G interaction, FLAG-HSP90 affinity purification [7]: remained in complexes with A3G; A3G expression ([3]; 293FT cells co-expressing HA-A3G and Vif or ΔVif): dose-dependently decreased A3G expression; Vif expression / degradation ([3]; 293FT cells co-expressing HA-A3G and Vif): unaffected; HSP90 expression ([3]; transfected 293FT cells): no effect on HSP90 levels
10 | COc1ccccc1-c1noc(-c2ccccc2Sc2ccc([N+](=O)[O-])cc2)n1 [Compound 1c, 3-(2-Methoxyphenyl)-5-(2-((4-nitrophenyl)thio)phenyl)-1,2,4-oxadiazole] | > 50 | > 50 | 6.8 | 6.8 | 6.8 | up-regulation of A3G; also recorded: restoring A3G levels | downregulation of Vif; also recorded: down-regulated Vif expression | 138 | – | – | – | – | – | – | – | –
